Assay results published in ChEMBL document CHEMBL1201861, “Genomics of Drug Sensitity in Cancer screening data, Wellcome Trust Sanger Institute”.

Tests used:
Experiment in all cases: cells
SCC-3 = assay type: functional, cell-based, Homo sapiens; conditions: Homo sapiens, SCC-3
Description: SANGER: Inhibition of human SCC-3 cell growth in a cell viability assay.

NCI-H1417 = assay type: functional, cell-based, Homo sapiens; conditions: Homo sapiens, NCI-H1417
Description: SANGER: Inhibition of human NCI-H1417 cell growth in a cell viability assay.

NCI-H2196 = assay type: functional, cell-based, Homo sapiens; conditions: Homo sapiens, NCI-H2196; read-out: IC50
Description: SANGER: Inhibition of human NCI-H2196 cell growth in a cell viability assay.

NCI-H2081 = assay type: functional, cell-based, Homo sapiens; conditions: Homo sapiens, NCI-H2081
Description: SANGER: Inhibition of human NCI-H2081 cell growth in a cell viability assay.

EC-GI-10 = assay type: functional, cell-based, Homo sapiens; conditions: Homo sapiens, EC-GI-10
Description: SANGER: Inhibition of human EC-GI-10 cell growth in a cell viability assay.

RL95-2 = assay type: functional, cell-based, Homo sapiens; conditions: Homo sapiens, RL95-2
Description: SANGER: Inhibition of human RL95-2 cell growth in a cell viability assay.

K052 = assay type: functional, cell-based, Homo sapiens; conditions: Homo sapiens, K052
Description: SANGER: Inhibition of human K052 cell growth in a cell viability assay.

TUR = assay type: functional, cell-based, Homo sapiens; conditions: Homo sapiens, TUR
Description: SANGER: Inhibition of human TUR cell growth in a cell viability assay.

SUP-T1 = assay type: functional, cell-based, Homo sapiens; conditions: Homo sapiens, SUP-T1
Description: SANGER: Inhibition of human SUP-T1 cell growth in a cell viability assay.

NB14 = assay type: functional, cell-based, Homo sapiens; conditions: Homo sapiens, NB14
Description: SANGER: Inhibition of human NB14 cell growth in a cell viability assay.

BOKU = assay type: functional, cell-based; conditions: Homo sapiens
Description: SANGER: Inhibition of human BOKU cell growth in a cell viability assay.

NCI-H64 = assay type: functional, cell-based, Homo sapiens; conditions: Homo sapiens, NCI-H64
Description: SANGER: Inhibition of human NCI-H64 cell growth in a cell viability assay.

PF-382 = assay type: functional, cell-based, Homo sapiens; conditions: Homo sapiens, PF-382
Description: SANGER: Inhibition of human PF-382 cell growth in a cell viability assay.

U-698-M = assay type: functional, cell-based, Homo sapiens; conditions: Homo sapiens, U-698-M
Description: SANGER: Inhibition of human U-698-M cell growth in a cell viability assay.

IGR-1 = assay type: functional, cell-based; conditions: Homo sapiens
Description: SANGER: Inhibition of human IGR-1 cell growth in a cell viability assay.

UACC-62 = assay type: functional, cell-based; conditions: Homo sapiens
Description: SANGER: Inhibition of human UACC-62 cell growth in a cell viability assay.

HT1197 = assay type: functional, cell-based, HT-1197; conditions: Homo sapiens
Description: SANGER: Inhibition of human HT-1197 cell growth in a cell viability assay.

RVH-421 = assay type: functional, cell-based; conditions: Homo sapiens
Description: SANGER: Inhibition of human RVH-421 cell growth in a cell viability assay.

SK-OV-3 = assay type: functional, cell-based; conditions: Homo sapiens
Description: SANGER: Inhibition of human SK-OV-3 cell growth in a cell viability assay.

NCI-H1993 = assay type: functional, cell-based; conditions: Homo sapiens
Description: SANGER: Inhibition of human NCI-H1993 cell growth in a cell viability assay.

NCI-H1573 = assay type: functional, cell-based; conditions: Homo sapiens
Description: SANGER: Inhibition of human NCI-H1573 cell growth in a cell viability assay.

J82 = assay type: functional, cell-based; conditions: Homo sapiens
Description: SANGER: Inhibition of human J82 cell growth in a cell viability assay.

T47D = assay type: functional, cell-based; conditions: Homo sapiens
Description: SANGER: Inhibition of human T47D cell growth in a cell viability assay.

CAL-120 = assay type: functional, cell-based; conditions: Homo sapiens
Description: SANGER: Inhibition of human CAL-120 cell growth in a cell viability assay.

IGROV-1 = assay type: functional, cell-based; conditions: Homo sapiens
Description: SANGER: Inhibition of human IGROV-1 cell growth in a cell viability assay.

SW1088 = assay type: functional, cell-based; conditions: Homo sapiens
Description: SANGER: Inhibition of human SW1088 cell growth in a cell viability assay.

NCI-H2342 = assay type: functional, cell-based; conditions: Homo sapiens
Description: SANGER: Inhibition of human NCI-H2342 cell growth in a cell viability assay.

SBC-5 = assay type: functional, cell-based; conditions: Homo sapiens
Description: SANGER: Inhibition of human SBC-5 cell growth in a cell viability assay.

639-V = assay type: functional, cell-based; conditions: Homo sapiens
Description: SANGER: Inhibition of human 639-V cell growth in a cell viability assay.

KYSE-520 cell line = assay type: functional, cell-based; conditions: Homo sapiens
Description: SANGER: Inhibition of human KYSE-520 cell growth in a cell viability assay.

CWR22R = assay type: functional, cell-based; conditions: Homo sapiens, 22Rv1
Description: SANGER: Inhibition of human 22RV1 cell growth in a cell viability assay.

LU-99A = assay type: functional, cell-based; conditions: Homo sapiens
Description: SANGER: Inhibition of human LU-99A cell growth in a cell viability assay.

HO-1-N-1 = assay type: functional, cell-based; conditions: Homo sapiens
Description: SANGER: Inhibition of human HO-1-N-1 cell growth in a cell viability assay.

CAL-27 = assay type: functional, cell-based; conditions: Homo sapiens
Description: SANGER: Inhibition of human CAL-27 cell growth in a cell viability assay.

SW48 = assay type: functional, cell-based; conditions: Homo sapiens
Description: SANGER: Inhibition of human SW48 cell growth in a cell viability assay.

NCI-H1755 = assay type: functional, cell-based; conditions: Homo sapiens
Description: SANGER: Inhibition of human NCI-H1755 cell growth in a cell viability assay.

MDA-MB-231 = assay type: functional, cell-based; conditions: Homo sapiens
Description: SANGER: Inhibition of human MDA-MB-231 cell growth in a cell viability assay.

ASPC1 = assay type: functional, cell-based; conditions: Homo sapiens
Description: SANGER: Inhibition of human AsPC-1 cell growth in a cell viability assay.

NCI-H520 = assay type: functional, cell-based; conditions: Homo sapiens
Description: SANGER: Inhibition of human NCI-H520 cell growth in a cell viability assay.

SNU-423 = assay type: functional, cell-based; conditions: Homo sapiens
Description: SANGER: Inhibition of human SNU-423 cell growth in a cell viability assay.

MFE-280 = assay type: functional, cell-based; conditions: Homo sapiens
Description: SANGER: Inhibition of human MFE-280 cell growth in a cell viability assay.

NCI-H292 = assay type: functional, cell-based; conditions: Homo sapiens
Description: SANGER: Inhibition of human NCI-H292 cell growth in a cell viability assay.

RPMI-2650 = assay type: functional, cell-based; conditions: Homo sapiens
Description: SANGER: Inhibition of human RPMI-2650 cell growth in a cell viability assay.

OVCAR-5 = assay type: functional, cell-based; conditions: Homo sapiens
Description: SANGER: Inhibition of human OVCAR-5 cell growth in a cell viability assay.

HCC1569 = assay type: functional, cell-based; conditions: Homo sapiens
Description: SANGER: Inhibition of human HCC1569 cell growth in a cell viability assay.

VMRC-RCZ = assay type: functional, cell-based; conditions: Homo sapiens
Description: SANGER: Inhibition of human VMRC-RCZ cell growth in a cell viability assay.

OAW-28 = assay type: functional, cell-based; conditions: Homo sapiens
Description: SANGER: Inhibition of human OAW-28 cell growth in a cell viability assay.

Ca-Ski = assay type: functional, cell-based; conditions: Homo sapiens
Description: SANGER: Inhibition of human Ca-Ski cell growth in a cell viability assay.

C32 = assay type: functional, cell-based; conditions: Homo sapiens
Description: SANGER: Inhibition of human C32 cell growth in a cell viability assay.

CHL-1 = assay type: functional, cell-based; conditions: Homo sapiens
Description: SANGER: Inhibition of human CHL-1 cell growth in a cell viability assay.

S-117 = assay type: functional, cell-based; conditions: Homo sapiens
Description: SANGER: Inhibition of human S-117 cell growth in a cell viability assay.

NCI-H2087 = assay type: functional, cell-based; conditions: Homo sapiens
Description: SANGER: Inhibition of human NCI-H2087 cell growth in a cell viability assay.

GP5d = assay type: functional, cell-based; conditions: Homo sapiens
Description: SANGER: Inhibition of human GP5d cell growth in a cell viability assay.

HuP-T4 = assay type: functional, cell-based; conditions: Homo sapiens
Description: SANGER: Inhibition of human HuP-T4 cell growth in a cell viability assay.

CAL-62 = assay type: functional, cell-based; conditions: Homo sapiens
Description: SANGER: Inhibition of human CAL-62 cell growth in a cell viability assay.

DOK = assay type: functional, cell-based; conditions: Homo sapiens
Description: SANGER: Inhibition of human DOK cell growth in a cell viability assay.

M14 = assay type: functional, cell-based; conditions: Homo sapiens
Description: SANGER: Inhibition of human M14 cell growth in a cell viability assay.

DU-145 = assay type: functional, cell-based; conditions: Homo sapiens
Description: SANGER: Inhibition of human DU-145 cell growth in a cell viability assay.

## COc1ccc(N(C(=O)Oc2c(C)cccc2C)c2ccnc(Nc3ccc(N4CCN(C)CC4)cc3)n2)c(OC)c1
SCC-3
  IC50: > 5.12 µM
NCI-H1417
  IC50: > 5.12 µM
NCI-H2196
  IC50: > 5.12 µM
NCI-H2081
  IC50: > 5.12 µM
EC-GI-10
  IC50: > 5.12 µM
RL95-2
  IC50: 1.32 µM
K052
  IC50: > 5.12 µM
TUR
  IC50: > 5.12 µM
SUP-T1
  IC50: > 5.12 µM
NB14
  IC50: > 5.12 µM
BOKU
  IC50: 1.81 µM
NCI-H64
  IC50: > 5.12 µM
PF-382
  IC50: 0.708 µM
U-698-M
  IC50: > 5.12 µM

## CS(=O)(=O)N1CCN(Cc2cc3nc(-c4cccc5[nH]ncc45)nc(N4CCOCC4)c3s2)CC1 [PICTILISIB]
IGR-1
  IC50: > 4 µM
UACC-62
  IC50: > 4 µM
HT1197
  IC50: > 4 µM
RVH-421
  IC50: > 4 µM
SK-OV-3
  IC50: > 4 µM
NCI-H1993
  IC50: > 4 µM
NCI-H1573
  IC50: > 4 µM
J82
  IC50: > 4 µM
T47D
  IC50: 0.598 µM
CAL-120
  IC50: > 4 µM
IGROV-1
  IC50: 0.634 µM
SW1088
  IC50: 2.49 µM
NCI-H2342
  IC50: > 4 µM
SBC-5
  IC50: > 4 µM
639-V
  IC50: 1.5 µM
KYSE-520 cell line
  IC50: > 4 µM
CWR22R
  IC50: 2.46 µM
LU-99A
  IC50: > 4 µM
HO-1-N-1
  IC50: 0.659 µM
CAL-27
  IC50: > 4 µM
SW48
  IC50: > 4 µM
NCI-H1755
  IC50: > 4 µM
MDA-MB-231
  IC50: > 4 µM
ASPC1
  IC50: > 4 µM
NCI-H520
  IC50: 1.09 µM
SNU-423
  IC50: 2.4 µM
MFE-280
  IC50: 0.418 µM
NCI-H292
  IC50: 0.974 µM
RPMI-2650
  IC50: 3.61 µM
OVCAR-5
  IC50: 0.94 µM
HCC1569
  IC50: > 4 µM
NB14
  IC50: > 4 µM
VMRC-RCZ
  IC50: > 4 µM
OAW-28
  IC50: > 4 µM
Ca-Ski
  IC50: > 4 µM
C32
  IC50: 3.42 µM
CHL-1
  IC50: 0.379 µM
S-117
  IC50: > 4 µM
NCI-H2087
  IC50: > 4 µM
GP5d
  IC50: > 4 µM
HuP-T4
  IC50: 1.61 µM
CAL-62
  IC50: > 4 µM
DOK
  IC50: 0.302 µM
M14
  IC50: 3.31 µM
DU-145
  IC50: > 4 µM

## C[C@@H](Oc1cc(-c2cnn(C3CCNCC3)c2)cnc1N)c1c(Cl)ccc(F)c1Cl [CRIZOTINIB]
SCC-3
  IC50: 0.357 µM
NCI-H1417
  IC50: > 2 µM
NCI-H2196
  IC50: > 2 µM
NCI-H2081
  IC50: > 2 µM
EC-GI-10
  IC50: > 2 µM
RL95-2
  IC50: > 2 µM
K052
  IC50: > 2 µM
TUR
  IC50: > 2 µM
SUP-T1
  IC50: > 2 µM
NB14
  IC50: > 2 µM
BOKU
  IC50: > 2 µM
NCI-H64
  IC50: > 2 µM
PF-382
  IC50: > 2 µM
U-698-M
  IC50: > 2 µM

## CO[C@@H]1[C@H](N(C)C(=O)c2ccccc2)C[C@H]2O[C@]1(C)n1c3ccccc3c3c4c(c5c6ccccc6n2c5c31)C(=O)NC4 [MIDOSTAURIN]
J82
  IC50: > 0.512 µM
T47D
  IC50: > 0.512 µM
CAL-120
  IC50: 0.211 µM
IGROV-1
  IC50: > 0.512 µM
HO-1-N-1
  IC50: > 0.512 µM
SW48
  IC50: 0.267 µM
NCI-H1755
  IC50: 0.0627 µM
OVCAR-5
  IC50: > 0.512 µM
GP5d
  IC50: > 0.512 µM
DU-145
  IC50: 0.319 µM

## O=C(NCCCNc1nc(Nc2cccc(NC(=O)N3CCCC3)c2)ncc1I)c1cccs1 [BX-795]
IGR-1
  IC50: > 5 µM
UACC-62
  IC50: > 5 µM
HT1197
  IC50: > 5 µM
RVH-421
  IC50: > 5 µM
SK-OV-3
  IC50: > 5 µM
NCI-H1993
  IC50: > 5 µM
NCI-H1573
  IC50: > 5 µM
J82
  IC50: > 5 µM
T47D
  IC50: > 5 µM
CAL-120
  IC50: 3.89 µM
IGROV-1
  IC50: > 5 µM
SW1088
  IC50: 2 µM
NCI-H2342
  IC50: > 5 µM
SBC-5
  IC50: > 5 µM
639-V
  IC50: > 5 µM
KYSE-520 cell line
  IC50: > 5 µM
CWR22R
  IC50: > 5 µM
LU-99A
  IC50: > 5 µM
HO-1-N-1
  IC50: 1.97 µM
CAL-27
  IC50: > 5 µM
SW48
  IC50: 2.02 µM
NCI-H1755
  IC50: 2.54 µM
MDA-MB-231
  IC50: > 5 µM
ASPC1
  IC50: > 5 µM
NCI-H520
  IC50: > 5 µM
SNU-423
  IC50: 3.91 µM
MFE-280
  IC50: 2.57 µM
NCI-H292
  IC50: 2.58 µM
RPMI-2650
  IC50: > 5 µM
OVCAR-5
  IC50: 2.28 µM
HCC1569
  IC50: > 5 µM
NB14
  IC50: 1.06 µM
VMRC-RCZ
  IC50: 2.77 µM
OAW-28
  IC50: > 5 µM
Ca-Ski
  IC50: > 5 µM
C32
  IC50: 1.76 µM
CHL-1
  IC50: 1.92 µM
S-117
  IC50: > 5 µM
NCI-H2087
  IC50: > 5 µM
GP5d
  IC50: > 5 µM
HuP-T4
  IC50: > 5 µM
CAL-62
  IC50: > 5 µM
DOK
  IC50: 4.36 µM
M14
  IC50: > 5 µM
DU-145
  IC50: > 5 µM

## NC(=O)c1cccc(-c2cc(Nc3ccc(OC(F)(F)F)cc3)ncn2)c1
SCC-3
  IC50: > 1.28 µM
NCI-H1417
  IC50: > 1.28 µM
NCI-H2196
  IC50: > 1.28 µM
NCI-H2081
  IC50: > 1.28 µM
EC-GI-10
  IC50: > 1.28 µM
RL95-2
  IC50: > 1.28 µM
K052
  IC50: > 1.28 µM
TUR
  IC50: > 1.28 µM
SUP-T1
  IC50: > 1.28 µM
NB14
  IC50: > 1.28 µM
BOKU
  IC50: > 1.28 µM
NCI-H64
  IC50: > 1.28 µM
PF-382
  IC50: > 1.28 µM
U-698-M
  IC50: > 1.28 µM

## CC(C)C[C@H](NC(=O)[C@H](Cc1ccccc1)NC(=O)c1cnccn1)B(O)O [BORTEZOMIB]
SCC-3
  IC50: 0.00237 µM
NCI-H1417
  IC50: 0.00551 µM
NCI-H2196
  IC50: 0.0068 µM
NCI-H2081
  IC50: 0.0101 µM
EC-GI-10
  IC50: > 0.02 µM
RL95-2
  IC50: 0.00379 µM
TUR
  IC50: > 0.02 µM
SUP-T1
  IC50: > 0.02 µM
NB14
  IC50: 0.018 µM
NCI-H64
  IC50: 0.00244 µM
PF-382
  IC50: 0.00147 µM
U-698-M
  IC50: > 0.02 µM
